What was measured:
[1] = system: YAP; test: csEV-induced nuclear localization of YAP in GR-H1993 cells; type: cell-based
[2] = system: YAP; test: Immunocytochemical analysis of YAP expression and nuclear localization; type: cell-based; details: csEV incubation; KRCT-6j given on top of csEV
[3] = system: HCT116 cells; test: Antiproliferative screening in HCT116 colon cancer cells; type: cell-based, human; details: medium containing csEV and compound; inhibitory in both HCT116 and LNCaP-SL
[4] = system: LNCaP-SL cells; test: csEV-mediated LNCaP-SL transwell migration inhibition; type: cell-based, human; details: csEV as attractant
[5] = system: LNCaP-SL cells; test: Antiproliferative screening in metastatic LNCaP-SL prostate cancer cells; type: cell-based, human; details: medium containing csEV and compound; inhibitory in both HCT116 and LNCaP-SL
[6] = system: GR-H1993 (gefitinib-resistant-H1993) cells; test: csEV-mediated proliferation of GR-H1993 cells; type: cell-based; details: csEV treatment
[7] = system: LNCaP-SL cells; test: LNCaP-SL proliferation with docetaxel in the presence or absence of EV; type: cell-based, human; details: 50 nM docetaxel; EV-containing normal 10% FBS versus 10% FBS without EVs
[8] = system: GR-H1993 cells; test: GR-H1993 xenograft mouse model; type: in vivo; details: gefitinib 25 mg/kg PO, KRCT-6j 20 mg/kg IP, daily for 28 days, male Athymic BALB/c-nu mice

For Cn1cc(-c2cnc(Nc3cc(Cl)cc(Cl)c3)nc2NC2CCCCC2)cn1 [KRCT-6j, N 4 -Cyclohexyl-N 2-(3,5-dichlorophenyl)-5-(1-methyl-1 H -pyrazol-4-yl)pyrimidine-2,4-diamine], the “csEV-induced nuclear localization of YAP” value [1] was “inhibited”, the “YAP expression and nuclear localization” value [2] was “decreased again” and the “proliferation inhibitory response, HCT116” value [3] was “both cell inhibitory responses”. For the same compound, the “inhibition of csEV-promoted migration of LNCaP-SL cells” value [4] was “inhibited by KRCT-6j in a concentration-dependent manner”, the “proliferation inhibitory response, LNCaP-SL” value [5] was “both cell inhibitory responses” and the “proliferation of GR-H1993 cells” value [6] was “inhibit only the proliferative effect of csEV-mediated GR-H1993”.
CC(=O)O[C@@]12CO[C@@H]1C[C@H](O)[C@@]1(C)C(=O)[C@H](O)C3=C(C)[C@@H](OC(=O)[C@H](O)[C@@H](NC(=O)OC(C)(C)C)c4ccccc4)C[C@@](O)([C@@H](OC(=O)c4ccccc4)[C@H]21)C3(C)C [docetaxel] was tested, and the “resistance of LNCaP-SL cells to docetaxel” value [7] was “much more resistant to docetaxel”.
In the case of COc1cc2ncnc(Nc3ccc(F)c(Cl)c3)c2cc1OCCCN1CCOCC1 [gefitinib], the “tumor growth, GR-H1993 xenograft” value [8] is reported as “did not affect tumor growth”.

Source: patent publication WO2022059996A1, “Blood circulation micro in-vitro corpuscle-mediated cancer treatment composition” (SEOUL TECHNO HOLDINGS Inc, priority 2020, dated 2022)
